Source: PubChem BioAssay (NCI)
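Protocol summary: plate cells (96-well), add compound at 5 concentrations, incubate 48 h, interpolate endpoints linearly. GI50 = concentration required for 50% inhibition of growth. TGI denotes the concentration required for complete inhibition of growth.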

What follows are compounds tested on RPMI-8226 leukemia (assay: NCI-60 cell line screen, 48 h).

| SMILES | GI50 | TGI |
| --- | --- | --- |
| Cc1ccc(NC(=O)NCCCOc2ccc(N3C(N)=NC(N)=NC3(C)C)cc2Cl)cc1S(=O)(=O)F | 60.7 µM | > 100 µM |
| CC[CH2][Sn]([Cl])([Cl])[CH2]CC.Oc1ccccc1C=NCCN=Cc1ccccc1O | 3.35 µM | 8.33 µM |
| COc1cc2c(c(OC)c1)C1(CC(CC#N)C2)SCCS1 (centres undefined) | – | > 100 µM |
| COc1ccccc1Cn1cc2c(c1-c1ccccc1)CCc1cnoc1-2 | 3.78 µM | > 100 µM |
| COc1ccc(CNc2nc3cc(C(F)(F)F)ccc3nc2C)cc1OC | – | 97 µM |
| C/C=C1/C(=C/c2[nH]c(/C=c3\[nH]/c(=C/C4=NC(=O)C(CC)=C4C)c(C)c3CCC(=O)O)c(CCC(=O)O)c2C)NC(=O)C1C (centres undefined) | > 150 µg/mL | > 150 µg/mL |
| C/C=C(\C)CC/C=C/CO[Si](C)(C)C(C)(C)C | – | > 100 µM |
| N#CCc1ccc(C(C#N)/C(CCCC(=O)Nc2cccc([N+](=O)[O-])c2)=N/NC(N)=S)cc1 (centres undefined) | – | > 100 µM |
| CNc1nc(N)c(N=O)c(Nc2ccc(Br)cc2)n1 | – | > 100 µM |
| COc1ccc(-c2nnc(COc3ccc(NC(=O)Nc4ccc(Cl)c(C(F)(F)F)c4)cc3F)o2)cc1 | 1.53 µM | 5 µM |
| CC(C)c1ccc(C(c2ccc(OCC(=O)O)cc2)c2ccc(C(C)C)cc(=O)c2O)c(O)c(=O)c1 | – | 47 µM |
| CN1C(=O)c2ccccc2NC(=O)C12O[C@@H]2c1cccc(O)c1 (some centres undefined) | – | > 100 µM |
| N#C/C(=C\c1cc2ccccc2c2ccccc12)c1ccccc1 | – | > 51.1 µM |
| CCOc1ccc2c(c1)[n+]([O-])c(-c1nc3ccccc3s1)c(N)[n+]2[O-] | – | > 100 µM |
| CSc1nc2cc(S(=O)(=O)N3CCCCC3)ccc2s1 | – | > 100 µM |
| COc1ncc(-c2ccc3ncnc(Nc4cccc(Cl)c4)c3c2)cc1NS(=O)(=O)CCN1CCOCC1 | 1.23 µM | > 100 µM |
| c1cc[c]([Pb]([c]2ccccc2)[c]2ccccc2)cc1 | 14.5 µM | 90 µM |
| COc1ccc2nc3cc(Cl)ccc3c(NCCN)c2c1 | 2.04 µM | 5.07 µM |
| CCCCN1CSC(=S)N(Cc2ccccc2)C1 | – | 59 µM |
| CC(=O)N1C/C(=C\c2ccc(N(C)C)cc2)C(=O)/C(=C/c2ccc(N(C)C)cc2)C1 | – | > 100 µM |
| CC(C)(C)c1ccc(O)c(CN(Cc2cc(C(C)(C)C)ccc2O)c2ccccc2)c1 | – | 47.7 µM |
| COC1=CC2(C=CC1=O)c1cc(OC)c(OC)cc1CCN2C(=O)c1ccccc1 (centres undefined) | – | > 100 µM |
| Cc1[nH]c2ccccc2c1C1Cc2ccccc2N1C(=O)/C(Cl)=C/c1ccccc1 (centres undefined) | – | > 100 µM |

What follows are compounds tested on MCF7 breast (assay: NCI-60 cell line screen, 48 h).

| SMILES | GI50 | TGI |
| --- | --- | --- |
| COc1ccc(-n2cc(-c3cc(OC)c(OC)c(OC)c3)[nH]c2=O)cc1Cl | > 100 µM | > 100 µM |
| C=C1CC[C@@H]2[C@](C)(COC(C)=O)[C@H](OC(C)=O)CC[C@@]2(C)[C@@H]1CC(Nc1ccc(S(=O)(=O)Nc2ncccn2)cc1)C1=CCOC1=O (some centres undefined) | 1.07 µM | 4.54 µM |
| C=C1C(=O)O[C@H]2[C@H]1CC/C(COC(=O)c1cc3ccccc3s1)=C\CC[C@@]1(C)O[C@@H]21 | 0.389 µM | 2.02 µM |
| COc1cc2c3c(n(CCCCOC(=O)C(Cl)(Cl)Cl)c(=O)c2cc1OC)-c1cc2c(cc1C3=O)OCO2 | 11.5 µM | > 100 µM |
| COc1ccc(/C=C\c2cc(OC)c(OC)c(OC)c2)cc1OC(=O)NCCN(C)C | – | > 100 µM |
| CC(C)CCCC(=O)CCCCCCC(=O)CCN(O)C(=O)C(N)CO (centres undefined) | – | 44.7 µM |
| Cc1ccc(NC(=O)NCCCOc2ccc(N3C(N)=NC(N)=NC3(C)C)cc2Cl)cc1S(=O)(=O)F | 4.93 µM | > 100 µM |
| CC[CH2][Sn]([Cl])([Cl])[CH2]CC.Oc1ccccc1C=NCCN=Cc1ccccc1O | 3.12 µM | 15.8 µM |
| COc1ccccc1Cn1cc2c(c1-c1ccccc1)CCc1cnoc1-2 | 2.33 µM | > 100 µM |
| C/C=C(\C)CC/C=C/CO[Si](C)(C)C(C)(C)C | – | > 100 µM |
| CNc1nc(N)c(N=O)c(Nc2ccc(Br)cc2)n1 | – | > 100 µM |
